Assay results: US20080269213A1, “8-Hydroxyquinoline compounds and methods thereof” (Wyeth, priority 2006, published 2008)
Where “and” joins values, the source holds several entries; their conditions need not be identical. Equal entries are not always repeated.

target: T1, recombinant human Aggrecanase-2 Agg2-Phe628 (Homo sapiens, UniProt Q9UNA0); test: Aggrecanase 2 in vitro enzyme assay (Agg-2 FRET, quenched fluorescent peptide substrate); type: biochemical; design: purified recombinant human Aggrecanase-2 Agg2-Phe628 (MW=41,737); This is a truncated form of full-length human aggrecanase-2; made in house; host or cells: CHO cells; details: concentration not given
T1 sequence (Q9UNA0 262-628 limits assumed): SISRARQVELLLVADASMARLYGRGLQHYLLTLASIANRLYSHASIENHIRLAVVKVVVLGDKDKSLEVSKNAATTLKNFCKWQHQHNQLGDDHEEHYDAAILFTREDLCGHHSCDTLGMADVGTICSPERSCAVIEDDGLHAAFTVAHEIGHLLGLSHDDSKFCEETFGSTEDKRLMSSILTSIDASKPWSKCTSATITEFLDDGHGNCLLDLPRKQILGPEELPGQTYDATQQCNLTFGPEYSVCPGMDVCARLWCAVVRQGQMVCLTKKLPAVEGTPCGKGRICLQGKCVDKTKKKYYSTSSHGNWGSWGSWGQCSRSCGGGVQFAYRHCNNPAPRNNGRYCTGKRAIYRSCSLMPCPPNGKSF
Experimental: A continuous assay was used in which the substrate was a synthetic peptide containing a fluorescent group (o-aminobenzyl, Abz), which was quenched by energy transfer to a 2,4-dinitrophenyl group (Dnp). The buffer used in this assay was 50 mM HEPES, pH 7.5, 100 mM NaCl, 5 mM CaCl2, 0.1% CHAPS, 5% glycerol. The source of enzyme was purified recombinant human Aggrecanase-2 Agg2-Phe628 (MW=41,737). This is a truncated form of full-length human aggrecanase-2 that was expressed in CHO cells and purified. The final concentration of Agg2-Phe628 was 0.5 μg/ml. […] It is a synthetic peptide that is designed after a portion of brevican, one of the naturally occurring substrates of Aggrecanase-2, of the sequence Abz-[…]-Dap(Dnp)-KK—NH2 (mass=1740). The concentration of this substrate stock was spectrophotometrically determined using the extinction coefficient at 354 nm of 18,172 M^−1cm^−1. […] The final concentration of substrate in the assay was 25 μM.
Test compounds (in duplicate) were serially diluted from 2 mM to 0.01 μM in 100% DMSO. The total reaction volume was 100 μl. The buffer and enzyme were added first followed by addition of 10× inhibitor from the dilution plate. Enzyme and buffer alone samples were included in order to obtain the maximal rate of substrate cleavage. […] Then substrate was added, mixed and the reaction monitored for 40 min at 30° C. in kinetic mode using λex: 340 nm and % λem: 420 (GeminiXS Molecular Devices).

SMILES	Agg-2 FRET Median PCT INHIB [%]
CC(=O)NC(c1ccccc1)c1ccc2cccnc2c1O (centres unmarked) [N-[(8-hydroxyquinolin-7-yl)(phenyl)methyl]acetamide]	50
CC(C)(C)c1ccc(NCC(=O)NC(c2ccccc2Cl)c2cc(Cl)c3cccnc3c2O)cc1 (centres unmarked) [Example 20, N^2-(4-tert-butylphenyl)-N^1-[(5-chloro-8-hydroxyquinolin-7-yl)(2-chlorophenyl)methyl]glycinamide]	54
Cc1ccc(C(NC(=O)CNc2ccc(C(C)(C)C)cc2)c2cc(Cl)c3cccnc3c2O)cc1 (centres unmarked) [Example 27, N^2-(4-tert-butylphenyl)-N^1-[(5-chloro-8-hydroxyquinolin-7-yl)(4-methylphenyl)methyl]glycinamide]	57
O=C(COc1ccc(Oc2ccccc2)cc1)NC(c1ccccc1)c1cc(Cl)c2cccnc2c1O (centres unmarked) [Example 85, N-[(5-chloro-8-hydoxyquinolin-7-yl)(phenyl)methyl]-2-(4-phenoxyphenoxy)acetamide]	50
COc1c(C(NC(=O)COc2ccccc2)c2ccccc2Cl)cc(Cl)c2cccnc12 (centres unmarked) [N-[(5-chloro-8-methoxyquinolin-7-yl)(2-chlorophenyl)methyl]-2-phenoxyacetamide]	32
Cc1ccc(C(NC(=O)COc2ccccc2)c2cc(Cl)c3cccnc3c2O)c(C)c1 (centres unmarked) [N-[(5-chloro-8-hydroxyquinolin-7-yl)(2,4-dimethylphenyl)methyl]-2-phenoxyacetamide]	60

same assay, conditions: read-out: Agg2 IC50

SMILES	IC50 [nM]
O=C(COc1ccccc1)NC(c1cnc2ccccc2c1)c1cc(Cl)c2cccnc2c1O (centres unmarked) [N-[(5-chloro-8-hydroxyquinolin-7-yl)(quinolin-3-yl)methyl]-2-phenoxyacetamide]	1300

same assay, conditions: read-out: Agg-2 FRET Median IC50

SMILES	IC50
CC(=O)Nc1ccc(NCC(=O)NC(c2cccc([N+](=O)[O-])c2)c2cc(Cl)c3cccnc3c2O)cc1 (centres unmarked) [Example 31, N^2-[4-(acetylamino)phenyl]-N^1-[(5-chloro-8-hydroxyquinolin-7-yl)(3-nitrophenyl)methyl]glycinamide]	2770 nM
COc1ccc(OCC(=O)NC(c2ccc(OC)cc2)c2ccc3cccnc3c2O)cc1 (centres unmarked) [N-[(8-hydroxyquinolin-7-yl)(4-methoxyphenyl)methyl]-2-(4-methoxyphenoxy)acetamide]	4510 nM
O=C(NC(c1ccccc1)c1cc(Cl)c2cccnc2c1O)c1ccccc1 (centres unmarked) [N-[(5-chloro-8-hydroxyquinolin-7-yl)(phenyl)methyl]benzamide]	1310 nM
O=C(COc1ccccc1)NC(c1cccs1)c1cc(Cl)c2cccnc2c1O (centres unmarked) [N-[(5-chloro-8-hydroxyquinolin-7-yl)(2-thienyl)methyl]-2-phenoxyacetamide]	1220 nM
Cc1ccc(C)c(C(NC(=O)COc2ccccc2)c2cc(Cl)c3cccnc3c2O)c1 (centres unmarked) [Example 37, N-[(5-chloro-8-hydroxyquinolin-7-yl)(2,5-dimethylphenyl)methyl]-2-phenoxyacetamide]	1490 nM
O=C(COc1ccccc1)NC(c1ccc(O)cc1Cl)c1cc(Cl)c2cccnc2c1O (centres unmarked) [N-[(2-chloro-4-hydroxyphenyl)(5-chloro-8-hydroxyquinolin-7-yl)methyl]-2-phenoxyacetamide]	1940 nM
O=C(COc1ccccc1)NC(c1cccnc1)c1cc(Cl)c2cccnc2c1O (centres unmarked) [Example 69, N-[(5-chloro-8-hydroxyquinolin-7-yl)(pyridin-3-yl)methyl]-2-phenoxyacetamide]	1920 nM
Cc1ccc(C(NC(=O)CNc2cccnc2)c2cc(Cl)c3cccnc3c2O)cc1 (centres unmarked) [Example 22, N^1-[(5-chloro-8-hydroxyquinolin-7-yl)(4-methylphenyl)methyl]-N^2-pyridin-3-ylglycinamide]	9790 nM
O=C(CNc1cccnc1)NC(c1cccc(F)c1)c1cc(Cl)c2cccnc2c1O (centres unmarked) [Example 32, N^1-[(5-chloro-8-hydroxyquinolin-7-yl)(3-fluorophenyl)methyl]-N^2-pyridin-3-ylglycinamide]	15100 nM
CN(CC(=O)NC(c1cccc(F)c1)c1cc(Cl)c2cccnc2c1O)Cc1ccccc1 (centres unmarked) [Example 55, N^2-benzyl-N^1-[(5-chloro-8-hydroxyquinolin-7-yl)(3-fluorophenyl)methyl]-N^2-methylglycinamide]	1440 nM
COc1ccc(C(NC(=O)COc2ccc(C)cc2)c2ccc3cccnc3c2O)cc1 (centres unmarked) [N-[(8-hydroxyquinolin-7-yl)(4-methoxyphenyl)methyl]-2-(4-methylphenoxy)acetamide]	2830 nM
COc1ccc(C(NC(=O)COc2ccccc2)c2ccc3cccnc3c2O)cc1 (centres unmarked) [N-[(8-hydroxyquinolin-7-yl)(4-methoxyphenyl)methyl]-2-phenoxyacetamide]	4410 nM
Cc1cc(C(NC(=O)COc2ccccc2)c2cccc([N+](=O)[O-])c2)c(O)c2ncccc12 (centres unmarked) [Example 46, N-[(8-hydroxy-5-methylquinolin-7-yl)(3-nitrophenyl)methyl]-2-phenoxyacetamide]	1320 nM
COc1cccc(C(NC(=O)COc2ccccc2)c2cc(Cl)c3cccnc3c2O)c1 (centres unmarked) [N-[(5-chloro-8-hydroxyquinolin-7-yl)(3-methoxyphenyl)methyl]-2-phenoxyacetamide]	1840 nM
O=C(COc1ccccc1)NC(c1cccc(F)c1)c1cc(Cl)c2cccnc2c1O (centres unmarked) [N-[(5-chloro-8-hydroxyquinolin-7-yl)(3-fluorophenyl)methyl]-2-phenoxyacetamide]	624 nM
COc1ccc(OCC(=O)NC(c2ccccc2)c2cc(Cl)c3cccnc3c2O)cc1 (centres unmarked) [N-[(5-chloro-8-hydroxyquinolin-7-yl)(phenyl)methyl]-2-(4-methoxyphenoxy)acetamide]	1380 nM
O=C(COc1ccccc1)NC(c1ccc(Cl)cc1)c1ccc2cccnc2c1O (centres unmarked) [N-[(4-chlorophenyl)(8-hydroxyquinolin-7-yl)methyl]-2-phenoxyacetamide]	3380 nM
O=C(COCc1ccccc1)NC(c1cccc(F)c1)c1cc(Cl)c2cccnc2c1O (centres unmarked) [2-(benzyloxy)-N-[(5-chloro-8-hydroxyquinolin-7-yl)(3-fluorophenyl)methyl]acetamide]	828 nM
Cc1ccc(C(NC(=O)CNCc2ccccc2)c2cc(Cl)c3cccnc3c2O)cc1 (centres unmarked) [Example 60, N^2-benzyl-N^1-[(5-chloro-8-hydroxyquinolin-7-yl)(4-methylphenyl)methyl]glycinamide]	1830 nM
O=C(COc1ccccc1)NC(c1cccc(F)c1)c1ccc2cccnc2c1O (centres unmarked) [N-[(3-fluorophenyl)(8-hydroxyquinolin-7-yl)methyl]-2-phenoxyacetamide]	2760 nM
O=C(CNc1cccnc1)NC(c1cccc([N+](=O)[O-])c1)c1cc(Cl)c2cccnc2c1O (centres unmarked) [Example 28, N^1-[(5-chloro-8-hydroxyquinolin-7-yl)(3-nitrophenyl)methyl]-N^2-pyridin-3-ylglycinamide]	1560 nM
Cc1ccc(OCC(=O)NC(c2ccccc2)c2ccc3cccnc3c2O)cc1 (centres unmarked) [N-[(8-hydroxyquinolin-7-yl)(phenyl)methyl]-2-(4-methylphenoxy)acetamide]	2470 nM
COc1ccc(C(NC(=O)COc2cccnc2)c2cc(Cl)c3cccnc3c2O)cc1 (centres unmarked) [N-[(5-chloro-8-hydroxyquinolin-7-yl)(4-methoxyphenyl)methyl]-2-(pyridin-3-yloxy)acetamide]	2980 nM
CC(=O)NC(c1ccccc1)c1cc(Cl)c2cccnc2c1O (centres unmarked) [N-[(5-chloro-8-hydroxyquinolin-7-yl)(phenyl)methyl]acetamide]	19700 nM
O=C(COc1ccccc1)NC(c1cc([N+](=O)[O-])ccc1Cl)c1cc(Cl)c2cccnc2c1O (centres unmarked) [N-[(5-chloro-8-hydroxyquinolin-7-yl)(2-chloro-5-nitrophenyl)methyl]-2-phenoxyacetamide]	523 nM
O=C(COc1ccc(Oc2ccccc2)cc1)NC(c1ccccc1)c1ccc2cccnc2c1O (centres unmarked) [N-[(8-hydroxyquinolin-7-yl)(phenyl)methyl]-2-(4-phenoxyphenoxy)acetamide]	908 nM
O=C(NC(c1ccccc1)c1ccc2cccnc2c1O)c1ccccc1 (centres unmarked) [N-[(8-hydroxyquinolin-7-yl)(phenyl)methyl]benzamide]	4700 nM and 5470 nM

same assay, conditions: ~600-1800 nM

SMILES	Agg2 % inh [% inh ~600-1800]
COc1cc(OC)cc(OCC(=O)NC(c2ccccc2)c2cc(Cl)c3cccnc3c2O)c1 (centres unmarked) [N-[(5-chloro-8-hydroxyquinolin-7-yl)(phenyl)methyl]-2-(3,5-dimethoxyphenoxy)acetamide]	50
